Source: patent US20180162825A1, “NOVEL DGAT2 INHIBITORS” (Eli Lilly and Company, priority 2015, published 2018)

Assays:
human DGAT2 [1] = molecular target: T1, human DGAT2 (Homo sapiens, UniProt Q96PD7); experiment: Diacylglycerol Acyltransferase 2 (DGAT2) Cell-Based Assay (HepG2); set-up: This assay uses human hepatoma cell-line, HepG2, as a source of acyltransferase activity; endogenous in cells; host or cells: HepG2; details: geometric mean; HepG2 cells, incorporation of 13C18-oleate into triolein normalized to POPC; read-out: IC50 (nM) mean ± SD, (n) = number of experiments
T1 sequence (Q96PD7 1-388): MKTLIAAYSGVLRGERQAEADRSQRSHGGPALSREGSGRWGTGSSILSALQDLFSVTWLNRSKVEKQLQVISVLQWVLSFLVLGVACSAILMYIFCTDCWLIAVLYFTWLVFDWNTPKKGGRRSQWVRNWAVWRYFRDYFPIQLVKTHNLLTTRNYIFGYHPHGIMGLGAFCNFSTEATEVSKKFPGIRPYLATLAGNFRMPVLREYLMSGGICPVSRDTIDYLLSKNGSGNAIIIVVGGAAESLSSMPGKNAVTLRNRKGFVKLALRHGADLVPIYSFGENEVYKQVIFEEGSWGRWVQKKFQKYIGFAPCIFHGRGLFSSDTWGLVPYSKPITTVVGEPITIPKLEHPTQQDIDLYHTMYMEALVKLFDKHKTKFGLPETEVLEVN
Description: The inhibitory activity of compounds against human DGAT2 in a cell environment is evaluated in this assay. This assay uses human hepatoma cell-line, HepG2, as a source of acyltransferase activity.
HepG2 cell line is a commonly used model for metabolic reactions that occur in human hepatocytes in vivo. Synthesis of triglyceride in this cell line is followed by measuring incorporation of isotopically labeled oleate into triolein (a triglyceride with 3 oleoyl moieties).
Dispense the HepG2 cells into a 96-well microplate, which has been previously coated with Poly-D-lysine, in an amount of 50,000 cells/well in 100 μL Minimal Essential Media (MEM) with 10% Fetal Bovine Serum (FBS). Incubate the cells for 16 hr at 37° C. Replace the cell culture medium with MEM containing 2% Bovine Serum Albumin. Dissolve the test compound in 0.5% DMSO and prepare serial dilutions in half-log increments. Add the serially diluted test compound into separate wells. Incubate for 0.5 hr at 37° C. Thereafter replace the cell culture medium with a medium of the same composition, but which includes 50 μM ^13C18-oleate and 300 μM hydropropyl-β-cyclodextrine. Incubate for an additional 4 hr at 37° C. Discard the cell culture medium by flipping the microplate over thereby draining the wells and then soaking up any residual media from the wells with a paper towel. Dry the microplate at ambient temperature (˜21° C.) for 10 min. Add aliquots of 125 μL of solvent (isopropyl alcohol:tetrahydrofuran:methanol:chloroform, in a ratio of 90:10:2.5:2.5 v/v), an internal standard for phosphatidylcholine (PC), and an internal standard for triacylglycerol (TG) to each well. Seal and shake the plate for 30 min at ambient temperature. Transfer 100 μL aliquots of the upper phase of each well into a wells of a deep-well plate (2 mL per well). Analyze the contents of the wells using mass-spectrometry analysis. Measure both triolein with a single ^13C18-oleate moiety and POPC using liquid chromatography/mass spectroscopy method (LC/MS). The degree of incorporation of a single ^13C18-oleate moiety into triolein, normalized to the concentration of 1-palmitoyl-2-oleoyl-phosphatidylcholine (POPC) is used as a measure of DGAT2 activity.
Determine the IC50 for each compound, using a 4 parameter logistic curve fit.

human DGAT2 [2] = molecular target: T1, human DGAT2; experiment: Diacylglycerol Acyltransferase 2 (DGAT2) Biochemical Assay; details: geometric mean; recombinant human DGAT2 with FLAG tag, 1 hr at RT, 14C oleoyl-CoA; read-out: IC50 (nM), ± SD, (n) = number of experiments
Description: The in vitro inhibitory activity of compounds against human DGAT2 is evaluated in this assay. The assay uses recombinant human DGAT2 with a FLAG tag at the amino terminus, expressed in genetically engineered insect SF9 cells, and purified through affinity chromatography.
DGAT2 catalyzes transfer of an acyl moiety from acyl-Coenzyme A onto diacylglycerol, to form triacylglycerol. In this particular embodiment of the assay oleate is used as the acyl moiety that is transferred. To facilitate miscibility of all lipid components, all lipids used in the assay contain oleyl moiety as the only acyl group.
Prior to starting the assay prepare a mixture of dioleoyl glycerol (DOG) and dioleoyl phosphatidylcholine (DOPC) at 3:7 molar ratio. Mix appropriate amount of DOPC and DOG dissolved in chloroform in a borosilicate glass test tube. Evaporate the solvent under stream of argon to form a film of lipid. Subsequently, place the test-tube under vacuum (<1 Torr) for 2 hrs to remove residual solvent. Add appropriate amount of buffer containing TrisHCl (pH 7.5, 150 mM), and sucrose (250 mM) to achieve 20 mM concentration of total lipid. Assure complete suspension of the lipid film by vigorous vortexing. Sonicate the contents of the tube in a water bath sonicator under standing wave conditions until the suspension turns from turbid to translucent, to assure conversion of liposomes into small unilamellar vesicles (SUVs)
Prepare the test compound by dissolving it and serially diluting in half-log increments in DMSO. For each concentration, perform 10-fold step dilution of compound solution in DMSO into buffer containing TrisHCl (pH 7.5, 150 mM), and sucrose (250 mM).
Mix SUV suspensions and compound solution with other components of the assay to achieve the following concentration of individual ingredients: TrisHCl (pH 7.5, 150 mM), sucrose (250 mM), MgCl2 (5 mM,), dithiothreitol (DTT) (0.5 mM), oleoyl coenzyme A (oleoyl-CoA) (12 μM), 1-^14C oleoyl coenzyme A (oleyl-CoA-^14C) (8 μM), dioleoyl glycerol (DOG) (0.6 mM), and dioleoyl phosphatidylcholine (DOPC) (1.4 mM), DGAT2 protein (0.5 nM), DMSO (1%, v/v), with test compound concentration within a 1 nM to 100 μM range, in 30 μl total volume. Incubate the reaction for 1 hr at RT (approximately 21° C.) in individual wells of a 384-well plate. After 1 hr, stop the reaction by adding 23 μl stop solution containing a mixture of isopropanol:EtOH:heptane:DI water: 1 N NaOH (59:12.5:15:11:2.5, by volume). Add 42 μL Microscint E and then incubate mixture overnight to extract the triglyceride into the organic solvent layer containing scintillant. Measure the radioactivity using a Perkin-Elmer TopCount instrument. […] Calculate the degree of inhibition of DGAT2 by measuring the radioactivity at 10 different concentrations for each compound. […]

plasma triglycerides = experiment: In Vivo Pharmacodynamic Assay: reduction in plasma triglycerides in mice; details: Mus musculus, po; male C57BL6 mice, gavage, with 3 mg/kg DGAT1 inhibitor and tyloxapol; reduction in plasma triglycerides vs control; read-out: ED50 (mg/kg) SD
Description: This assay measures the potency of compounds by measuring the reduction in plasma triglycerides in mice treated with the test compounds compared to control animals that are treated only with the vehicle solution. Male, C57BL6 mice (10-11 weeks old, each approximately 22 g in weight) are used in this assay.
Triglycerides synthesized in the liver are secreted into circulation as a component of the Very Low Density Lipoprotein (VLDL). To prevent degradation of triglycerides in circulation by the Lipoprotein Lipase (LPL), this assay uses IV injection of a detergent, tyloxapol, which inhibits activity of LPL. Since another enzyme, DGAT1, participates in the synthesis of liver triglyceride, a saturating dose of a DGAT1 inhibitor (sodium {trans-4-[4-(4-amino-7,7-dimethyl-7H-pyrimido[4,5-b][1,4]oxazin-6-yl)phenyl]cyclohexyl}acetate, IUPAC ACDLABS naming convention, see Dow et al. Bioorg. & Med. Chem., (2011) 21(20), 6122-6128) is also used in this assay. […]
Collect the blood via cardiac puncture into tube containing the anti-coagulant EDTA. […] Freeze the plasma samples on dry ice until they are to be analyzed. […] Reduction in total triglycerides in the test mice is calculated relative to the concentration of triglycerides in the control mice.

[3] = test system: LDL-c, VLDL-c and TG serum concentrations; experiment: In Vivo Efficacy Model: LDL-c, VLDL-c and TG in LDL receptor-deficient mice; details: 30 mg/kg bid, fourteen days, oral gavage, vs control group
From the text: The compounds described herein can be evaluated in an in vivo efficacy model. This assay measures the potency of compounds by measuring the reduction in low density lipoprotein cholesterol (LDL-c), very low density lipoprotein cholesterol (VLDL-c), and triglycerides (TG). Male, LDL receptor-deficient mice (29 weeks old, each approximately 30 g in weight) are used in this assay.
Feed the mice a standard mouse chow diet for two weeks prior to dosing. Prepare a test solution for oral gavage by suspend the compounds in acacia at 0.3, 1, and 3 mg/mL. Separate the mice into a test group and a control group. Thereafter at the first day of the third week dose the mice in the test group with the test solution for fourteen days, BID. Similarly dose the mice in the control group with just the vehicle without any of the test compound. Four hours after the last dose euthanize the mice with CO2. Immediately collect the blood via cardiac puncture. Isolate the serum to measure serum triglycerides as well as cholesterol in individual lipoprotein fractions. Separate the lipoprotein fractions by known HPLC methods. Determine the cholesterol concentration associated with each lipoprotein fraction by a colorimetric method (Roche Cholesterol/HP Reagent 11875540), using isolated lipoprotein fractions with known cholesterol concentration as standards. Results obtained at the highest dose, can be expressed as the percentage of change in comparison of the LDL-c, VLDL-c and TG serum concentrations of mice in the test group to those of mice n the control group.
The results for the compound of Example 24 at 30 mg/kg bid are listed below in Table 21.

[4] = therapy with lomitapide; cited from earlier work

Compound	IC50 (human DGAT2 [1])	IC50 (human DGAT2 [2])	ED50 (plasma triglycerides)	LDL-c % change [3]	Triglycerides % change [3]	VLDL-c % change [3]	increase in the liver fat content [4]
CCc1cnc(NCc2ccnc(Oc3ccc(CS(N)(=O)=O)cc3F)c2)nc1 [Example 7, [4-[[4-[[(5-ethylpyrimidin-2-yl)amino]methyl]-2-pyridyl]oxy]-3-fluoro-phenyl]methanesulfonamide]	36 ± 1 nM	27 ± 15 nM	–	–	–	–	–
CCc1cnc(NCc2cc(Oc3ccc(CCNS(C)(=O)=O)cc3)nc(N)n2)nc1 [Example 57, N-[2-[4-[2-Amino-6-[[(5-ethylpyrimidin-2-yl)amino]methyl]pyrimidin-4-yl]oxyphenyl]ethyl]methanesulfonamide]	53 nM	103 ± 51 nM	0.23 ± 0.03 mg/kg	–	–	–	–
O=C(NC1CCN(CCCCC2(C(=O)NCC(F)(F)F)c3ccccc3-c3ccccc32)CC1)c1ccccc1-c1ccc(C(F)(F)F)cc1 [lomitapide]	–	–	–	–	–	–	8 fold

Now from value to molecule, other results behind:

IC50 (human DGAT2 [1])	IC50 (human DGAT2 [2])	Compound	ED50 (plasma triglycerides)	LDL-c % change [3]	Triglycerides % change [3]	VLDL-c % change [3]	increase in the liver fat content [4]
17 ± 1 nM	52 ± 27 nM	CNS(=O)(=O)Cc1ccc(Oc2cc(CNc3ncc(Cl)cn3)nc(C(F)(F)F)n2)cc1 [Example 10, 1-[4-[6-[[(5-Chloropyrimidin-2-yl)amino]methyl]-2-(trifluoromethyl)pyrimidin-4-yl]oxyphenyl]-N-methyl-methanesulfonamide]	–	–	–	–	–
9 ± 6 nM	579 ± 169 nM	CN1CCN(c2nc(CNc3ncc(Cl)cn3)cc(Oc3ccc(CS(N)(=O)=O)cc3)n2)CC1 [Example 24, [4-[6-[[(5-Chloropyrimidin-2-yl)amino]methyl]-2-(4-methylpiperazin-1-yl)pyrimidin-4-yl]oxyphenyl]methanesulfonamide]	0.8 ± 0.09 mg/kg	−61%	−56%	−74%	–
